Patent US12036226B2, “Methods of treating subjects having diabetes with chronic kidney disease” (Poxel SA, priority 2018, dated 2024)

Assays:
Protein binding = format: in vitro ADME
[1] = Metabolism in standard in vitro assays; format: in vitro ADME
[2] = system: Japanese patients with type 2 diabetes (T2DM); test: 24-week Phase III placebo-controlled monotherapy study in Japanese patients with type 2 diabetes; format: in vivo, human; details: for HbA1c LSM Difference vs. Placebo, Week 24 / Change in HbA1c from baseline, Week 24 LS Mean (SE) / HbA1c LSM Difference vs. Placebo (SE), Week 24: 1000 mg BID
Description: A 24-Week Phase III, Randomized, Double-Blind, Placebo-Controlled, Monotherapy Study to Assess the Efficacy, Safety and Tolerability of Imeglimin Administered Orally in Japanese Patients with Type 2 Diabetes (T2DM)
A total of 213 subjects were randomized in a 1:1 ratio to receive either imeglimin (1000 mg BID) or placebo BID for 24 weeks, with 194 subjects completing the study without Investigational Medicinal Product (IMP) discontinuation. The primary objective of this study was to determine the change in HbA1c from baseline after 24 weeks of imeglimin treatment compared to placebo. Secondary endpoints of the trial included fasting plasma glucose along with other standard glycemic and non-glycemic parameters. Subjects were to have an eGFR of ≥50 mL/min/1.73 m^2 at Screening and ≥45 mL/min/1.73 m^2 at Pre-randomization.

subjects with T2DM = test: 24-week Phase IIb dose-ranging placebo-controlled study in subjects with T2DM; format: in vivo, human; details: for Mean HbA1c Change from Baseline: Week 24, T2D and Stage 2 and 3a CKD
Description: A 24-Week, Phase IIb, Dose-Ranging, Randomized, Double-blind, Placebo-controlled, Parallel-group Safety and Efficacy Study in Subjects with T2DM
The five parallel groups included 4 groups of imeglimin doses (500, 1000, 1500, or 2000 mg twice daily) and 1 placebo group. The primary endpoint was to assess the dose-response in T2D subjects, using change in HbA1c from baseline to week 24 as the primary evaluation criterion. Subjects could be either treatment naïve or treated with any oral antidiabetic monotherapy and were to have an eGFR of ≥50 mL/min/1.73 m^2. A total of 382 subjects were randomized 1:1:1:1:1 to one of the 5 study arms, with 315 subjects completing the study.

C[C@H]1N=C(N(C)C)N=C(N)N1 [imeglimin, (6R)—N^2, N^2,6-trimethyl-3,6-dihydro-1,3,5-triazine-2,4-diamine]
protein binding (Protein binding): < 8 % bound | metabolism [1]: no appreciable metabolism | HbA1c LSM Difference vs. Placebo, Week 24 ([2]; CKD Stage 2 (eGFR = 60-90 mL/min/1.73 m^2)): −0.96% | Change in HbA1c from baseline, Week 24 LS Mean (SE) ([2]; CKD Stage 2 (eGFR = 60-90 mL/min/1.73 m^2), N 66): −0.82 (0.08) % | HbA1c LSM Difference vs. Placebo, Week 24 ([2]; CKD Stage 2 (eGFR = 60-90 mL/min/1.73 m^2), listed as Imeglimin): −0.96 (0.11) % | HbA1c LSM Difference vs. Placebo, Week 24 ([2]; CKD Stage 3a (eGFR < 60 mL/min/1.73 m^2)): −0.70% | Change in HbA1c from baseline, Week 24 LS Mean (SE) ([2]; CKD Stage 3a (eGFR < 60 mL/min/1.73 m^2), N 21): −0.66 (0.13) % | HbA1c LSM Difference vs. Placebo, Week 24 ([2]; CKD Stage 3a (eGFR < 60 mL/min/1.73 m^2), listed as Imeglimin): −0.70 (0.19) % | HbA1c LSM Difference vs. Placebo (SE), Week 24 ([2]; Normal eGFR (eGFR > 90 mL/min/1.73 m^2)): −0.59% | Change in HbA1c from baseline, Week 24 LS Mean (SE) ([2]; Normal eGFR (eGFR > 90 mL/min/1.73 m^2), N 11): −0.33 (0.20) % | HbA1c LSM Difference vs. Placebo (SE), Week 24 ([2]; Normal eGFR (eGFR > 90 mL/min/1.73 m^2), listed as Imeglimin): −0.59 (0.32) % | A1C lowering compared to placebo ([2]; pre-specified analysis, stage 2 and 3a CKD (eGFR <90 mL/min/1.73 m^2, n=178)): improvement in A1C lowering as compared to placebo | Mean HbA1c Change from Baseline (subjects with T2DM; 500 mg BID (n = 44)): 0.007% | Mean HbA1c Change from Baseline (subjects with T2DM; 1000 mg BID (n = 43)): −0.072% | Mean HbA1c Change from Baseline (subjects with T2DM; 1500 mg BID (n = 41)): −0.502% | Mean HbA1c Change from Baseline (subjects with T2DM; 2000 mg BID (n = 42)): −0.193% | HbA1c lowering compared to placebo (subjects with T2DM; post-hoc analysis, stage 2 and 3a CKD (eGFR <90 mL/min/1.73 m^2, n=211)): improvement in HbA1c lowering as compared to placebo
